Source: patent US6384080B1, “Anthranilic acid derivatives as inhibitors of the cGMP-phosphodiesterase” (Fujisawa Pharmaceutical Co., Ltd., priority 1998, dated 2002)

Legend:
[1] = test system: rabbit corpora cavernosa; assay: Relaxation elicited by electrical field stimulation in rabbit corpora cavernosa; details: at 5×10^−8 M
Description: (b) Effect of test compounds on the relaxation elicited by electrical field stimulation in rabbit corpora cavernosa.
The rabbit erectile tissue strip prepared according to the method described by Italiano et al. (Pharmacological Research, 30, No 4, 1994) was placed 25 ml organ bath containing Krebs-Ringer solution. The bath was maintained at 37° C. and bubbled with 95% O2 and 5% CO2. The solution also contained atropine (1 μM) and guanethidine (50 μM). The erectile tissue strip was stretched with a resting force of 0.25 g, and isometric contraction were recorded via force development transducer on a recorder. The bipolar platinum electrode connected to the electric stimulator was placed around the strip.
The strip was equilibrated in the Krebs-Ringer solution for about 60 minutes and preconstricted by 0.1 mM norepinephrine to ascertain the responsibility of each preparation. The strip was washed several times, and then constricted by 0.1 mM norepinephrine. After getting stable contractile response to norepinephrine, the first electrical field stimulation (1 to 30 Hz, 20V, 0.5 msec duration, 90 sec interval) was delivered. 30 minutes after adding the tested compound, the second electrical field stimulation was delivered. […]

[2] = test system: SD rat; assay type: in vivo; details: 32 mg/kg once a day for 14 consecutive days
Description: Toxicities of Compound (I)
Test on the toxicity by repetitive oral administration of the compounds, i.e., N-(3,4-dimethoxybenzyl)-2-(cis-4-hydroxycyclohexylamino)-5-nitrobenzamide and (R)-N-(3,4-dimethoxybenzyl)-2-(2-hydroxy-1-methylethylamino)-5-nitrobenzamide which were selected as representative compounds of this invention, in SD rat was conducted.

[3] = test system: isolated rat corpora cavernosa; assay: Nitroprusside-induced relaxation in isolated rat corpora cavernosa; design: species or system SD rat; details: in the presence of the test compound (5×10^−8 M); strip constricted by 0.1 mM norepinephrine; control preparation 20%
Description: (a) Effect of Test Compound on Nitroprusside or Ach-induced Relaxation in Isolated Rat Corpora Cavernosa.
Male SD rats were anesthetized with sodium pentobarbital 50 mg/kg intraperitoneally, and the corpora cavernosa was excised. The tunica albuginea was dissected according to the methods described by Italiano et al. (Pharmacological Research, 30, No. 4, 1994) and used for in vitro pharmacological study. The erectile tissue strip was placed in a 25 ml organ bath containing Krebs-Ringer solution. The bath was maintained at 37° C. and bubbled with 95% O2 and 5% CO2. The strip was stretched with a resting force of 0.25 g, and isometric contraction were recorded via force development transducer on a recorder.
The strip was equilibrated in the Krebs-Ringer solution for about 60 minutes, and preconstructed by 0.1 mM norepinephrine to ascertain the responsibility of each preparation. The strip was washed several times, and then constricted by 0.1 mM norepinephrine. After getting stable constrictile response to norepinephrine, the first dose-response curve for sodium nitroprusside or Ach(acetylcholine) was obtained. After washing a few times for 60 minutes, the strip was constricted by norepinephrine again, and the second dose-response curve for sodium nitroprusside or Ach was obtained. […]

[4] = test system: Male beagle; assay: Duration of detumescence (T75) after cavernous nerve electrical stimulation in anesthetized beagle; assay type: in vivo; details: 0.1 mg/kg, i.v., cavernous nerve stimulation 7 Hz, 10 V, T75 = time from cessation of stimulation to 75% reduction of intracavernous pressure
Description: (c) Male beagle weighing 8.0-12.0 kg were anesthetized with pentobarbital sodium (35 mg/kg, i.v.). After tracheotomy, the animal was artificially ventilated using a volume-cycled ventilator. The femoral artery was cannulated for continuous blood pressure and heart rate monitoring. The femoral vein was cannulated for maintenance of anesthesia and administration of tested compound.
Either the left or right cavernous nerve was exposed posterolaterally to the prostate and a cuff electrode was placed around the nerve for electrical stimulation. A 21-gauge butterfly needle was placed in the corpus cavernousum and connected to a pressure transducer for intracavernous pressure. After a period of stabilization of all parameters, erection was induced by cavernous nerve electrically stimulation (7 Hz, 10 V) and the following was measured: the duration of detumescence (time (T75) from cessation of stimulation to 75% reduction of intracavernous pressure). The test compounds, i.e., N-(3,4-dimethoxybenzyl)-2-(cis-4-hydroxycyclohexylamino)-5-nitrobenzamide and (R)-N-(3,4-dimethoxybenzyl)-2-(2-hydroxy-1-methyl-ethylamino)-5-nitrobenzamide were each dissolved in 50% PEG400.

SMILES | relaxation of corpora cavernosa elicited by electrical field stimulation (effect in words) [1] | The dead (toxicity by repetitive oral administration) [2] | Relaxant response elicited by 10 μM nitroprusside [3] [%] | mean of prolongation of T75 [4] [s]
COc1ccc(CNC(=O)c2cc([N+](=O)[O-])ccc2N[C@H](C)CO)cc1OC [(R)-N-(3,4-Dimethoxybenzyl)-2-(2-hydroxy-(1-methylethylamino)-5-nitrobenzamide] | potentiated | could not be observed | 32 | 44
COc1ccc(CNC(=O)c2cc([N+](=O)[O-])ccc2N[C@H]2CC[C@@H](O)CC2)cc1OC [N-(3,4-Dimethoxybenzyl)-2-(cis-4-hydroxycyclohexylamino)-5-nitrobenzamide] | potentiated | could not be observed | – | 52
